In one data set the target is T1, hERG potassium current (Homo sapiens, UniProt Q12809).
T1 construct: expressed in transfected cells; host or cells: HEK293, cultured under G418 selection
The data set is described as follows: hERG inhibition test (whole-cell patch clamp, Qpatch). The class given is cell-based. As to conditions: initial concentration 30 μM, 6 concentration points. How it is done:
The BEK293 cells were cultured in a DiVEM medium containing […] and 0.8 mg/mL G418 at 37° C. with 5% o CO2. The cells were digested by TrypLE™ Express and centrifuged. The cell density was adjusted to 2×10^6 cells/mL. The cells were gently mixed for 15-20 min using a shaker equilibrated at room temperature, and subjected to patch clamping on a machine. The medium of the prepared cells was replaced with extracellular fluid. The intracellular fluid and the extracellular fluid were taken from the fluid pool, and respectively added to the intracellular fluid pool and the cell and the test substance pool of the QPlate chip. The voltage stimulation of the whole-cell hERG potassium current was recorded by the whole-cell patch clamp, and the test data was collected and stored by Qpatch. The compound was diluted 3-fold at an initial concentration of 30 μM, and 6 concentration points were set, with each drug concentration being set for two administrations over a period of at least 5 min. The current detected in compound-free extracellular fluid for each cell was served as its own control group, and the detection was repeated at least twice independently using two cells per concentration. All electrophysiological experiments were performed at room temperature.
For data analysis, the current acted for each drug concentration and the current of the blank control were standardized
and then the inhibition rate corresponding to each drug concentration was calculated
The mean and standard error were calculated for each concentration, and the half maximal inhibitory concentration of each compound was calculated:
The dose-dependent effect was fitted non-linearly using the above equation, wherein Y represents the inhibition rate, C represents the concentration of the test substance, IC50 is the half maximal inhibitory concentration, and HillSlope represents the Hill coefficient. Curve fitting and calculation of IC50 were performed by Graphpad software.

Data set [1] has as its system HCT116-MTAP wild-type (+/+)-cell strain. The data set is described as follows: Tumor cell proliferation inhibition assay (CellTiter-Glo), HCT116-MTAP wild-type (+/+). As to conditions: Homo sapiens, 120 h, HCT116-MTAP wild-type (+/+) cells, 5-day treatment. The class given is cell-based. Put shortly:
(§1)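 Cells were seeded, left 24 h, then exposed to test compounds in a 10-point, 1:3 dilution series from 10 μM top concentration alongside a DMSO group. After 5 days at 37° C./5% CO2, growth inhibition was judged from ATP level by CellTiter-Glo luminescence.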

Data set [2] deals with HCT116-MTAP-knockout (−/−) cell strain. The experiment in a line: Tumor cell proliferation inhibition assay (CellTiter-Glo), HCT116-MTAP-knockout (-/-). The class given is cell-based. As to conditions: Homo sapiens, 120 h, HCT116-MTAP-knockout (−/−) cells, 5-day treatment. The gist of the method:
as §1
(ATP-based viability assays read luminescence as a measure of living cells.)

Another data set relates to DOHH-2 cell strain. The experiment in a line: Tumor cell proliferation inhibition assay (CellTiter-Glo), DOHH-2. The data set is classed as cell-based. As to conditions: Homo sapiens, 120 h, DOHH-2 cells, 5-day treatment. Put shortly: as §1
Data set [3] deals with SDMA in human colon cancer cell line HCT116. The experiment in a line: Cell symmetric dimethylarginine (SDMA) test, In-cell Western, HCT116 (MTAP wild-type). The data set is classed as cell-based. Conditions: Homo sapiens, HCT-116, 96 h. The gist of the method:
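HCT116 cells treated 4 days at 37° C with compound, top concentration 6 μM, 1:4 dilutions, 6 points, versus DMSO. Fixed cells stained for SDMA with DRAQ5 normalisation; 800/700 nm ratio after background subtraction fitted by non-linear regression for IC50.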

Data set [4] has as its system SDMA in HCT116-MTAP-knockout cell line. The experiment in a line: Cell symmetric dimethylarginine (SDMA) test, In-cell Western, HCT116-MTAP-knockout. The class given is cell-based. Conditions: Homo sapiens, 96 h.
Data set [5] in a line: Pharmacokinetic test in mice (IV and PO). The data set is classed as in vivo. Conditions: mouse, plasma, BALB/c mice; for half-life: read-out: T½ (converted).
Data set [6] deals with MAT2A recombinant protein (Homo sapiens, UniProt P31153). The data set is described as follows: MAT2A inhibitory activity (malachite green colorimetric enzyme assay). The class given is biochemical. Put shortly:
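Recombinant human MAT2A with L-methionine and ATP in 50 mM HEPES pH 7.5, 50 mM KCl, 10 mM MgCl2, 10 mM DTT, 60 min at room temperature. Phosphate released detected by malachite green reagent (15 min) at 630 nm. Ten-point 1:3 series from 1000 nM final; IC50 by variable-slope non-linear regression.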

Data set [7] in a line: Saturation solubility of samples in FaSSIF solution. The class given is physicochemical. Conditions: FaSSIF pH 6.5, room temperature overnight. The procedure: About 0.21 g of sodium hydroxide, about 2.24 g of sodium dihydrogen phosphate dihydrate, and 3.09 g of sodium chloride were weighed out and dissolved in 500 mL of water, and then the pH was adjusted to 6.5 with 1 N sodium hydroxide or 1 N hydrochloric acid. 112 mg of FaSSIF solid was weighed out and placed in a 50 mL volumetric flask, and the above buffer was added for dissolution, diluted to volume, mixed well, and left to stand at room temperature for 2 h or more.
• Test sample: about 1 mg of the test sample was taken, and 1 mL of FaSSIF solution was added. The mixture was stirred at room temperature overnight and centrifuged, and the supernatant was collected and injected for analysis. • Control substance solution: about 1.5 mg of the test sample was precisely weighed out and placed in a 50 mL volumetric flask, and DMF was added for dissolution, diluted to volume, and mixed well.
• Mobile phase A: 1000 mL of purified water was accurately weighed out, 1 mL of formic acid was added, and the mixture was mixed well and degassed with ultrasonic. • Mobile phase B: acetonitrile
The peak of the main component of the control substance and the peak of the test substance consistent with the retention time of the peak of the main component of the control substance were integrated, and the concentration thereof in the FaSSIF solution was calculated according to external standard method.

The test system of data set [8] is Human colorectal adenocarcinoma cells HCT116-MTAP-KO. The experiment in a line: Mouse xenograft tumor pharmacodynamic model, HCT116-MTAP-KO. The class given is in vivo. As to conditions: PO 200 mg/kg once a day, 28 days of administration. How it is done: (§2) In this example, the in vivo efficacy of the compound in a mouse xenograft tumor model after intragastric (PO) administration was tested.
Human colorectal adenocarcinoma cells HCT116-MTAP-KO were cultured in monolayer in vitro under the condition of McCoy's 5A medium containing 10% fetal bovine serum and 1% penicillin and streptomycin, and the culture was carried out at 37° C. with 5% CO2. The cells were digested with trypsin three times a week for passaging. When the saturation degree of the cells was 80-90%, the cells were collected, counted and inoculated. 0.1 mL (5×10^6 cells) of HCT116-MTAP-KO cells were subcutaneously inoculated on the right back of each mouse. On day 16 after inoculation of the cells, the mean tumor volume reached 154 mm^3. The mice were randomly grouped for administration and intragastrically dosed once daily. Changes in body weight and tumor volume were recorded. After a certain number of days of administration, the experiment was ended. Tumor volume changes and mouse body weight changes were counted and analyzed. AG270 (CAS: 2201056-66-6) was the positive control compound.

In data set [9] the test system is Human pancreatic cancer cells KP-4. The experiment in a line: Mouse xenograft tumor pharmacodynamic model, KP-4. As to conditions: KP-4 xenograft, PO 200 mg/kg once a day, 29 days of administration. The class given is in vivo. How it is done: as §2
Human pancreatic cancer cells KP-4 were cultured in monolayer in vitro under the condition of 1640 medium containing […] and […] and streptomycin, and the culture was carried out at 37° C. with 5% CO2. The cells were digested with trypsin three times a week for passaging. When the saturation degree of the cells was 80-90%, the cells were collected, counted and inoculated. 0.1 mL (5×10^6 cells) of KP-4 cells were subcutaneously inoculated on the right back of each mouse. On day 34 after inoculation of the cells, the mean tumor volume reached 154 mm^3. The mice were randomly grouped for administration and intragastrically dosed once daily. Changes in body weight and tumor volume were recorded. After 29 days of administration, the experiment was ended. Tumor volume changes and mouse body weight changes were counted and analyzed. AG270 (CAS: 2201056-66-6) was the positive control compound.

Setting [10] is: IC50 score, read-out: Tumor cell 5-day relative growth inhibition (HCT116-MTAP+/+) (nM), score.
The mark [11] stands for this setting: IC50 value, read-out: Tumor cell 5-day relative growth inhibition (HCT116-MTAP+/+).
The mark [12] stands for this setting: IC50 score, read-out: Tumor cell 5-day relative growth inhibition (HCT116-MTAP−/−) (nM), score.
Setting [13] is: IC50 value, read-out: Tumor cell 5-day relative growth inhibition (HCT116-MTAP−/−).

Read-outs that look alike come from different tables or passages of the source. Some results are limits rather than exact numbers.

Sequence of MAT2A recombinant protein (P31153 whole entry): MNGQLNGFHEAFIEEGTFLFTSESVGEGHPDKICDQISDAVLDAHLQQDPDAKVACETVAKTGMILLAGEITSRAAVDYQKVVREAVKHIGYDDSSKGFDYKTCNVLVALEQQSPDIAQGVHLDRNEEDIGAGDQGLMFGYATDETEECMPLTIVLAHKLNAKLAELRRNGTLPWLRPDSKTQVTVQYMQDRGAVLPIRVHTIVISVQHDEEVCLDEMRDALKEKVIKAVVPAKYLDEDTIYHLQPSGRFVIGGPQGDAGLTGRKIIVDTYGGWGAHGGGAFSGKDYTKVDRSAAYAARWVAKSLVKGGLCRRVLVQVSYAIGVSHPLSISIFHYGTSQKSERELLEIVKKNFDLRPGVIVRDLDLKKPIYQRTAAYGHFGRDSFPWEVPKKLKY
T1 sequence (Q12809 whole entry): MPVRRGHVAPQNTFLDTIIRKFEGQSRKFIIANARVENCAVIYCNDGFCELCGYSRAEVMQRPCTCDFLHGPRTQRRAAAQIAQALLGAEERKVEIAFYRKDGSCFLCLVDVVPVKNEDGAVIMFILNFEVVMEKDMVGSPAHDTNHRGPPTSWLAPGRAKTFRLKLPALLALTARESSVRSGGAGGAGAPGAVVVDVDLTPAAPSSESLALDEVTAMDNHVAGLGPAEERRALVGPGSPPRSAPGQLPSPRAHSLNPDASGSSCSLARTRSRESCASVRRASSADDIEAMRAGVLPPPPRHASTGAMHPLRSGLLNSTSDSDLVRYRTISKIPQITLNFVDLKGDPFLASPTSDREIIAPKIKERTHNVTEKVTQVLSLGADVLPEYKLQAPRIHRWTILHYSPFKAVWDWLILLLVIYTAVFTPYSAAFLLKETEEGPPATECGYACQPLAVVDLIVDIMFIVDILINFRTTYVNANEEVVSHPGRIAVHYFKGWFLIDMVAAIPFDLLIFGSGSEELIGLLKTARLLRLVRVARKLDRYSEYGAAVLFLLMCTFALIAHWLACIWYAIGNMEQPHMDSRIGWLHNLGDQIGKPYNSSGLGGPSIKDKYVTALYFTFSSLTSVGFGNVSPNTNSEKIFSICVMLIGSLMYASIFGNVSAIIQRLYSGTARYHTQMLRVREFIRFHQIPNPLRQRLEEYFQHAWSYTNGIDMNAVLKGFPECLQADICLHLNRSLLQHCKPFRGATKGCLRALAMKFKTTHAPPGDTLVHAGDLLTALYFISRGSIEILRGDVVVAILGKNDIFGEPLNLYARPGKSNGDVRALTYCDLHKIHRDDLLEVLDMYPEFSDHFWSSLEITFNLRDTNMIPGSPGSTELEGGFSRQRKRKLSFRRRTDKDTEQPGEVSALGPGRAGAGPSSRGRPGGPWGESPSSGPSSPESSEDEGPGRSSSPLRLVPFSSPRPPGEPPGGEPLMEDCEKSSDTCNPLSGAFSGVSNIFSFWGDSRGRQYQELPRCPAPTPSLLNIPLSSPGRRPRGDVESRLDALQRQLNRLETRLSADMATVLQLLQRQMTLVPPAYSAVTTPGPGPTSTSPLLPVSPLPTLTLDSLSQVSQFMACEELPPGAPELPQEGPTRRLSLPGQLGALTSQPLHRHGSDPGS

For the compound `Cn1cc2c(n1)c(=O)n(-c1cccnc1)c1nc(C(F)(F)F)ccc21` [Compound B72], the IC50 was greater than 30000 nM against hERG potassium current; 500 to 2000 nM in data set [1] (setting [10]); 1680 nM in [1] (setting [11]); less than 500 nM in [2] (setting [12]); 138 nM in [2] (setting [13]); 500 to 2000 nM with DOHH-2 cell strain (IC50 score, read-out: Tumor cell 5-day relative growth inhibition (DOHH-2) (nM), score). Besides, the IC50 in the data set on DOHH-2 cell strain (IC50 value, read-out: Tumor cell 5-day relative growth inhibition (DOHH-2)) is 640 nM; in data set [3] (IC50 score class, read-out: Cell 96 h SDMA Inhibition (HCT116-MTAP+/+) (score)) it was 200 to 1000 nM; in [3] (read-out: Cell 96 h SDMA inhibition (HCT116-MTAP+/+)), 480 nM; in [4] (IC50 score class, read-out: Cell 96 h SDMA Inhibition (HCT116-MTAP−/−) (score)) it was less than 200 nM; in data set [4] (read-out: Cell 96 h SDMA Inhibition (HCT116-MTAP−/−)), 76.9 nM. The AUC turned out to be 7.43 µM·h in [5] (IV 2 mg/kg) and 65 µM·h in [5] (PO 10 mg/kg). For the same compound, the clearance in [5] (IV 2 mg/kg) is 12.8 mL/min/kg. In addition, the half-life in [5] (IV 2 mg/kg) was 46.8 min; in [5] (PO 10 mg/kg), 57 min. Also, in data set [5] (IV 2 mg/kg, read-out: Vz), the Vd worked out at 0.9 L/kg.

As for `Cn1cc2c(n1)c(=O)n(-c1ccc(OC(F)F)cc1)c1nc(C(F)(F)F)ccc21` [Compound B188], the IC50 in data set [1] (setting [10]) was no less than 2000 nM; in data set [1] (setting [11]) it was greater than 10000 nM; in data set [2] (setting [12]), no less than 2000 nM; in [2] (setting [13]), greater than 10000 nM; in [6] (IC50 score class, read-out: MAT2A Inhibition (score)) it was less than 100 nM; in [6] (read-out: MAT2A Inhibition) it was 99.4 nM. For the same compound, in data set [7], the “FaSSIF (pH = 6.5) (μg/mL)” value came out at 7.4 μg/mL.

Consider AG270 [reference compound], for which the figures for the “Tumor growth inhibition percentage (TGI)” value in [8] and in data set [9] were “once a day TGI = 33.82%” and “once a day TGI = 57.48%”, respectively.

The term AUC denotes the area under the concentration-time curve, a measure of exposure. Lower therefore signals low exposure.
